Experimental data reported in patent US11419854B2, “Medicament containing pemafibrate” (KOWA COMPANY, LTD., priority 2017, dated 2022).

Legend:
[1] = literature statement; cited from earlier work
[2] = Pharmacokinetic study of pemafibrate in liver cirrhosis patients (plasma unchanged pemafibrate, LC-MS-MS); format: in vivo, human; conditions: for AUC0-t, ratio of geometric mean to persons with normal liver function / Cmax, ratio of geometric mean to persons with normal liver function: single oral dose 0.2 mg, fasting
Protocol: To investigate the effect of liver cirrhosis on the pharmacokinetics of pemafibrate, a clinical study was conducted on mild liver cirrhosis patients, moderate liver cirrhosis patients, fatty liver patients, and persons with normal liver function.
Subjects were classified into four groups according to the criteria in Table 2. As a result, the subjects included 8 mild liver cirrhosis patients, 6 moderate liver cirrhosis, patients, 10 fatty liver patients, and 8 persons with normal liver function.
2. Test Method (1) Administration and Measurement Subjects received a single oral dose of 0.2 mg of study drug (pemafibrate) in the fasting state (fasting for at least 10 hours).
Blood samples were collected at a total of 16 time points immediately before administration of the investigational product and 0.25, 0.5, 1, 1.5, 2, 3, 4, 6, 8, 10, 12, 16, 24, 36, and 48 hours after administration of the investigational product, and plasma concentrations of unchanged pemafibrate were measured by high performance liquid chromatography/tandem mass spectrometry (High-Performance Liquid Chromatography/Tandem Mass Spectrometry: LC-MS-MS method).
To investigate the pharmacokinetics, the pharmacokinetic parameters (maximum concentration (Cmax) and area under the concentration-time curves […] (AUC0-t) of unchanged pemafibrate were evaluated by calculating the ratio of the geometric mean values of the groups of patients with hepatic dysfunction to those with normal hepatic function and their 90% confidence intervals.

[3] = fatty liver patients (n = 10) vs normal liver function (n = 8), plasma unchanged pemafibrate
[4] = mild liver cirrhosis Child-Pugh class A (n = 8) vs normal liver function (n = 8)
[5] = moderate liver cirrhosis Child-Pugh class B (n = 6) vs normal liver function (n = 8)

| Structure (SMILES) | route of excretion [1] | geometric mean values of Cmax and AUC0-t compared with the liver function normal group ([2]; fatty liver patient group) | AUC0-t, ratio of geometric mean to persons with normal liver function [2, 3] | Cmax, ratio of geometric mean to persons with normal liver function [2, 3] | AUC0-t, ratio of geometric mean to persons with normal liver function [2, 4] | Cmax, ratio of geometric mean to persons with normal liver function [2, 4] | ratio of geometric mean values of Cmax and AUC0-t, liver cirrhosis patients to persons with normal liver function ([2]; mild liver cirrhosis patients (Child-Pugh Class A)) | AUC0-t, ratio of geometric mean to persons with normal liver function [2, 5] | Cmax, ratio of geometric mean to persons with normal liver function [2, 5] | ratio of geometric mean values of Cmax and AUC0-t, liver cirrhosis patients to persons with normal liver function ([2]; moderate liver cirrhosis patients (Child-Pugh Class B)) |
| --- | --- | --- | --- | --- | --- | --- | --- | --- | --- | --- |
| CC(C)(Oc1ccc(CCNC(=O)c2ccc(Cl)cc2)cc1)C(=O)O [bezafibrate] | excreted in the urine primarily via kidneys |  |  |  |  |  |  |  |  |  |
| CC[C@@H](Oc1cccc(CN(CCCOc2ccc(OC)cc2)c2nc3ccccc3o2)c1)C(=O)O [pemafibrate, (2R)-2-[3-({1,3-benzoxazol-2-yl[3-(4-methoxyphenoxy)propyl]amino}methyl)phenoxy]butanoic acid] | rarely excreted via kidneys | about 1.2 times | 1.194 | 1.198 | 2.076 | 2.329 | approximately 2 fold | 4.191 | 3.882 | approximately 4 fold |
